Test results published in ChEMBL document CHEMBL4725297, “The discovery and evaluation of 3-amino-2(1H)-pyrazinones as a novel series of selective p38α MAP kinase inhibitors” (Bioorg Med Chem Lett, 2020).
In brackets after ≈: the same amount, converted by molar mass.

Tests used:
[1] = Aqueous solubility of the compound at pH 7.4; format: physicochemical; conditions: buffer
[2] = Intrinsic clearance in rat hepatocytes assessed per 10^6 cells; format: ADME, cell-based, Hepatocyte; conditions: read-out: CLH
[3] = Distribution coefficient, logD of the compound at pH 7.4; format: physicochemical; conditions: octanol/water
[4] = Half life in iv dosed rat; format: ADME, organism-based; conditions: in vivo
[5] = Clearance in iv dosed rat; format: ADME, organism-based; conditions: in vivo
[6] = Volume of distribution at steady state in iv dosed rat; format: ADME, organism-based; conditions: in vivo, read-out: Vdss
[7] = Acid dissociation constant, pKa of the compound; format: physicochemical
[8] = Oral bioavailability in rat; format: ADME, organism-based; conditions: in vivo
[9] = Clearance in iv dosed dog relative to hepatic blood flow; format: ADME, organism-based, Canis lupus familiaris; conditions: in vivo
[10] = Half life in iv dosed dog; format: ADME, organism-based, Canis lupus familiaris; conditions: in vivo
[11] = Clearance in iv dosed rat relative to hepatic blood flow; format: ADME, organism-based; conditions: in vivo
[12] = Volume of distribution at steady state in iv dosed dog; format: ADME, organism-based, Canis lupus familiaris; conditions: in vivo, read-out: Vdss
[13] = Clearance in iv dosed dog; format: ADME, organism-based, Canis lupus familiaris; conditions: in vivo
[14] = Apparent permeability of the compound by PAMPA; format: ADME

SMILES | solubility ([1]; read-out: solubility) | hepatocyte CLint [2] | logD [3] | also measured
Cc1ccc(C(=O)NC2CC2)cc1-n1ccnc(N[C@@H](c2ccccc2)[C@@H](C)CN2CCN(C)CC2)c1=O | 854 µM (≈ 440 µg/mL) | 30 µL/min/1e6 cells | 2.3 | 
Cc1ccc(C(=O)NC2CC2)cc1-n1ccnc(N(C)Cc2ccccc2)c1=O | 54 µM (≈ 21 µg/mL) | 59 µL/min/1e6 cells | 3.2 | 
Cc1ccc(C(=O)NC2CC2)cc1-n1ccnc(N[C@@H](c2ccccc2)[C@@H](C)CN2CCN[C@H](C)C2)c1=O | 847 µM (≈ 436 µg/mL) | 8.5 µL/min/1e6 cells | 1.6 | 
Cc1ccc(C(=O)NC2CC2)cc1-n1ccnc(N[C@@H](c2ccccc2)[C@@H](C)CO)c1=O | 870 µM (≈ 376 µg/mL) | 19 µL/min/1e6 cells | 2.6 | 
Cc1ccc(C(=O)NC2CC2)cc1-n1ccnc(NCC2CCCCC2)c1=O | 340 µM (≈ 129 µg/mL) | 7.6 µL/min/1e6 cells | 3.7 | 
Cc1ccc(C(=O)NC2CC2)cc1-n1ccnc(N[C@@H](c2ccccc2)[C@@H](C)CN2CCNCC2)c1=O | 636 µM (≈ 318 µg/mL) | 15 µL/min/1e6 cells | 1.3 | 
Cc1ccc(C(=O)NC2CC2)cc1-n1ccnc(N[C@@H]2CCCc3ccccc32)c1=O | 168 µM (≈ 69.6 µg/mL) | 140 µL/min/1e6 cells | 3.7 | 
Cc1ccc(C(=O)NC2CC2)cc1-n1ccnc(N)c1=O |  |  | 0.4 | 
Cc1ccc(C(=O)NC2CC2)cc1-n1ccnc(N2CCCC2c2ccccc2)c1=O (racemic) | 344 µM (≈ 143 µg/mL) | 120 µL/min/1e6 cells | 3.3 | 
Cc1ccc(C(=O)NC2CC2)cc1-n1ccnc(N[C@@H](c2ccccc2)[C@@H](C)CN2CCCCC2)c1=O | 908 µM (≈ 454 µg/mL) | 61 µL/min/1e6 cells | 3 | half-life [4]: 7.8 h; clearance [5]: 3 L/h/kg; pKa [7]: 8.4; Vd [6]: 5.5 L/kg
Cc1ccc(C(=O)NC2CC2)cc1-n1ccnc(N[C@@H](c2ccccc2)[C@@H](C)CN2CCN[C@@H](C)C2)c1=O | 783 µM (≈ 403 µg/mL) | 14 µL/min/1e6 cells | 1.5 | 
Cc1ccc(C(=O)NC2CC2)cc1-n1ccnc(NC2CC2)c1=O | > 1000 µM | < 1 µL/min/1e6 cells | 1.5 | 
Cc1ccc(C(=O)NC2CC2)cc1-n1cnc2ccc(N3CCN(C)CC3)cc2c1=O [AZD-6703] |  | < 3 µL/min/1e6 cells |  | half-life [4]: 0.7 h; solubility [1]: 730 µM (≈ 305 µg/mL)
CNc1nccn(-c2cc(C(=O)NC3CC3)ccc2C)c1=O | > 1000 µM | 1.1 µL/min/1e6 cells | 1.1 | 
Cc1ccc(C(=O)NC2CC2)cc1-n1ccnc(N[C@@H](c2ccccc2)[C@@H](C)CN2CCOCC2)c1=O | 216 µM (≈ 108 µg/mL) | > 300 µL/min/1e6 cells | 3.5 | 

The next lines start with results.

solubility ([1]; read-out: solubility) | hepatocyte CLint [2] | logD [3] | SMILES | also measured
670 µM (≈ 327 µg/mL) | 55 µL/min/1e6 cells | 1.6 | Cc1ccc(C(=O)NC2CC2)cc1-n1ccnc(NCc2ccccc2OCCN2CCCC2)c1=O | 
 | 19 µL/min/1e6 cells | 3.1 | Cc1ccc(C(=O)NC2CC2)cc1-n1ccnc(NC(C)(C)c2ccccc2)c1=O | 
392 µM (≈ 152 µg/mL) | 130 µL/min/1e6 cells | 3 | Cc1ccc(C(=O)NC2CC2)cc1-n1ccnc(NCCc2ccccc2)c1=O | 
270 µM (≈ 109 µg/mL) | 26 µL/min/1e6 cells | 3.3 | CC[C@@H](Nc1nccn(-c2cc(C(=O)NC3CC3)ccc2C)c1=O)c1ccccc1 | 
405 µM (≈ 146 µg/mL) | 3.3 µL/min/1e6 cells | 3 | Cc1ccc(C(=O)NC2CC2)cc1-n1ccnc(Nc2ccccc2)c1=O | 
258 µM (≈ 104 µg/mL) | 22 µL/min/1e6 cells |  | COc1ccccc1CNc1nccn(-c2cc(C(=O)NC3CC3)ccc2C)c1=O | 
< 19 µM | 3.4 µL/min/1e6 cells | 2.9 | COc1ccc(CNc2nccn(-c3cc(C(=O)NC4CC4)ccc3C)c2=O)cc1 | 
23 µM (≈ 8.61 µg/mL) | 4.5 µL/min/1e6 cells | 2.6 | Cc1ccc(C(=O)NC2CC2)cc1-n1ccnc(NCc2ccccc2)c1=O | 
734 µM (≈ 285 µg/mL) | 17 µL/min/1e6 cells | 2.9 | Cc1ccc(C(=O)NC2CC2)cc1-n1ccnc(N[C@H](C)c2ccccc2)c1=O | 
50 µM (≈ 19.4 µg/mL) | < 3 µL/min/1e6 cells | 3.1 | Cc1ccc(C(=O)NC2CC2)cc1-n1ccnc(N[C@@H](C)c2ccccc2)c1=O | 
800 µM (≈ 413 µg/mL) | 35 µL/min/1e6 cells | 2.3 | CC[C@@H](Nc1nccn(-c2cc(C(=O)NC3CC3)ccc2C)c1=O)c1ccccc1OCCN1CCCC1 | 
> 1000 µM | 157 µL/min/1e6 cells | 2.3 | Cc1ccc(C(=O)NC2CC2)cc1-n1ccnc(NC(C)(C)c2ccccc2OCCN2CCCC2)c1=O | half-life [4]: 8 h; clearance [5]: 5.94 L/h/kg; Vd [6]: 16.6 L/kg
351 µM (≈ 142 µg/mL) | 7.4 µL/min/1e6 cells | 2.7 | COc1cccc(CNc2nccn(-c3cc(C(=O)NC4CC4)ccc3C)c2=O)c1 | 
843 µM (≈ 387 µg/mL) | 18 µL/min/1e6 cells | 2 | Cc1ccc(C(=O)NC2CC2)cc1-n1ccnc(N[C@@H](c2ccccc2)[C@@H](C)CN(C)C)c1=O | 
650 µM (≈ 309 µg/mL) | 20 µL/min/1e6 cells | 1.6 | CNCCOc1ccccc1C(C)(C)Nc1nccn(-c2cc(C(=O)NC3CC3)ccc2C)c1=O | half-life [4]: 13 h; bioavailability [8]: 6%; CL [9]: 54%; clearance [5]: 3.54 L/h/kg; half-life [10]: 6.6 h; CL [11]: 69%; Vd [12]: 6.4 L/kg; pKa [7]: 9.1; Vd [6]: 31.6 L/kg; clearance [13]: 0.99 L/h/kg; Papp [14]: 42 nm/s
